# Test results: patent publication US11903998B2, “Compositions and methods of treating cancer using lipid agonists and receptors thereof” (Forsyth Dental Infirmary for Children, priority 2016, dated 2024)
# Where two headings read alike, the source gives them in different places.
# Key:
# [1] = tested on: LA-P0297 lung cancer cells; experiment: Histological analysis of tumor tissue (hematoxylin and eosin); assay type: in vivo, mice
# Text: To examine the microscopic alterations in the tumor tissue, tissues were fixed in 10% formalin, paraffin embedded, sectioned (5 μm) and stained with hematoxylin and eosin. Images were photographed and enlarged for evaluation.
# [2] = tested on: IL-12; experiment: Multiplex bead array cytokine level in tumor tissue; assay type: in vivo; conditions: Wt mice, RvE1 pre-treatment, mean ± SEM
# Method: (§1) Inflammation is driven by soluble factors that are produced by tumor cells and by the cells recruited to the tumor microenvironment. […] Cytokine levels were measured using a multiplex bead array assay kit for Luminex purchased from Millipore to measure the following cytokines: G-CSF, IL-10, IL-6, IL-8, IL-12, TNF □, as per the manufacturer's instructions using a Luminex 100 instrument. Appropriate dilutions of the samples in assay diluent were made as required. Each sample was assayed in duplicate and cytokine standards supplied by the manufacturer were used to calculate the concentrations in the samples. Cytokine levels are expressed in pg/ml.
# [3] = tested on: IL-6; experiment: as above; assay type: in vivo; conditions: Wt mice, RvE1 pre-treatment, mean ± SEM
# Method: as §1
# [4] = tested on: lung cancer; experiment: RvE1 and cisplatin in xenograft model of lung cancer
# [5] = tested on: lung cancer; conditions: mouse, in vivo
# [6] = tested on: Ki67; experiment: Immunohistochemistry of tumor tissue, proliferation marker; assay type: in vivo, mice
# Method: (§2) In order to identify tumor cell proliferation and angiogenesis markers, the expression of Ki67 as a marker of proliferation and CD31, CD34 and VEGF as markers of vascularization was analyzed by immunohistochemistry. Briefly, 5 μm thick sections were de-paraffinized and rehydrated with serial alcohol solutions. Antigen retrieval was performed by incubating the sections in 10 mM sodium citrate (pH 6.0) in a microwave oven first for 5 min at 720 W, then 3 min at 450 W and finally 2 min at 180 W. Endogenous peroxidase activity was quenched by incubating the slides with 3% H2O2 (in methanol) for 20 minutes at 4° C. followed by blocking with 2% BSA for 30 minutes at room temperature. The sections were then incubated with antibodies to Ki67, CD31, CD34 and VEGF (1:100 dilution) overnight at 4° C. in a humidified chamber. Sections were incubated with ABC reagent VACTASTAIN Elite ABC Standard Kit (PK-6100). The immune reactions were visualized using 3,3-diaminobenzidine tetra hydrochloride (DAB). DAB-stained slides were counterstained lightly with hematoxylin. Slides were dehydrated and mounted with Permount for analysis. Images were acquired and analyzed using the Nikon Eclipse 80i microscope (Japan) and Northern Eclipse imaging Elements-D (NIS-D) software. The results are expressed as percent of total positive cells.
# [7] = tested on: Ang2; experiment: Quantitative mRNA expression in tumor tissue (qPCR); assay type: in vivo; conditions: both Wt and Tg mice vs controls and vehicle groups, p<0.001
# Method: (§3) In order to analyze the impact of RvE1 on inflammation and angiogenesis, the expression of NF-κB, COX-2, VEGF, Ang-1 and Ang-2 was examined by quantitative real-time PCR. Total cellular RNA was extracted from tumor tissue (stored in RNAlater solution) using TriZol reagent. Quantification of RNA was determined using NanoDrop 1000 (Thermo Fisher Scientific, Wilmington, DE). RNA samples were stored at −80° C. until use. The first-strand cDNA was synthesized with High Capacity cDNA Archive kit (Applied Biosystems, Foster City, CA, USA) according to the manufacturer's instructions. For quantitative RT-PCR analysis, oligonucleotides for NF-κB, COX-2, VEGF, Ang-1, Ang-2 and GAPDH were chosen from predesigned assays. Thermal cycling included initial steps at 50° C. for 2 min and at 95° C. for 10 min, followed by 40 cycles at 95° C. for 15 s and at 60° C. for 1 min. The fluorescence of the double-stranded products was monitored in real time. The cDNA was amplified and quantified using Sequence Detection System (SDS) 7000 (Applied Biosystems). The 2^(ΔΔCt) (Ct value of target gene minus Ct value of housekeeping gene) method was used to calculate relative quantity fold-change. GAPDH was used as the housekeeping gene. The data is from 3 independent experiments performed in triplicate.
# [8] = tested on: VEGF; experiment: VEGF expression in tumor tissue (immunohistochemistry and PCR); assay type: in vivo, mice; conditions: p<0.001
# Method: as §2
# In order to analyze the impact of RvE1 on inflammation and angiogenesis, the expression of NF-κB, COX-2, VEGF, Ang-1 and Ang-2 was examined by quantitative real-time PCR. […] Quantification of RNA was determined using NanoDrop 1000 (Thermo Fisher Scientific, Wilmington, DE). […] For quantitative RT-PCR analysis, oligonucleotides for NF-κB, COX-2, VEGF, Ang-1, Ang-2 and GAPDH were chosen from predesigned assays. […] The fluorescence of the double-stranded products was monitored in real time. The cDNA was amplified and quantified using Sequence Detection System (SDS) 7000 (Applied Biosystems). The 2^(ΔΔCt) (Ct value of target gene minus Ct value of housekeeping gene) method was used to calculate relative quantity fold-change. […]
# [9] = tested on: COX-2; experiment: COX-2 expression, RvE1 and cisplatin xenograft model; assay type: in vivo, mice
# [10] = tested on: lung cancer; experiment: Orthotopic model of lung cancer, RvE1; assay type: in vivo
# [11] = tested on: IL-1α; experiment: Multiplex bead array cytokine level in tumor tissue; assay type: in vivo; conditions: Wt mice, RvE1 pre-treatment, mean ± SEM
# [12] = tested on: COX2; experiment: COX2 expression, orthotopic model of lung cancer; assay type: in vivo
# [13] = tested on: LA-P0297 lung cancer cells; assay type: in vivo, mice; conditions: for No tumor / Tumor developed (number of mice): total 6; for No tumor / Tumor developed (number of mice) / Necrosis: RvE1 pre-treatment; for Necrosis: cell wraps: Started on 18th day
# Text: ERV1-transgenic mice (Tg) were engineered as previously described (Gao et al., 2013). In brief, the full-length of hCD11b promoter cDNA was cloned upstream of the full-length chemR23 cDNA (GenBank accession: www.ncbi.nlm.nih.gov/nuccore/NM_004072). For genotyping, genomic DNA was collected from ear punch biopsies of mice and screened by PCR with primers directed to mouse ERV1 (forward primer 5′-CTCGGTCTCCTAGGCAAC-3′) and human ERV1 (forward primer 5′-GTCTTCCTCCCAATCCAT-3′). The mouse and human ERV1 amplicons share the same reverse primer (5′-TAGAAAGCCAGGACCCAG-3′). FVB Wild type female mice (Wt) were purchased from Jackson Laboratories (Bar Harbor, ME). All animals were housed under specific pathogen-free conditions, received standard laboratory chow diet and water ad libitum. All animal experiments were approved by the Institutional Animal Care and Use Committee (IACUC) at the Forsyth Institute and were performed in conformance to the standards of the Public Health Service Policy on Humane Care and Use of Laboratory Animals. The animals were acclimatized before being used in the experimental study.
# After one week of acclimatization, all animals received an injection of 1×10^6 LA-P0297 lung cancer cells subcutaneous in the right flank. Both Wt (n=18) and Tg (n=18) animals were randomly divided into 3 experimental groups: un-treated controls; 100 ng of RvE1 diluted in PBS injected intraperitoneal daily for the first 6 days and weekly thereafter for 3 weeks; vehicle, which was 5% ethanol diluted in PBS. RvE1 was stored in 100% ethanol and diluted in PBS immediately before use. RvE1 and vehicle were administered 30 minutes before the injection of cancer cells. Animals were checked routinely for body weight and growth of tumors on the skin. Tumor volume was measured using a Vernier caliper (Mitutoyo, Japan) and calculated using the following formula: V=½(L×W^2) where L=length and W=width. After 28 days, the animals were euthanized by CO2 asphyxia; tumor tissues were collected and stored for histological and molecular analyses.
# [14] = tested on: CD31; experiment: Immunohistochemistry of tumor tissue, vascularization marker CD31; assay type: in vivo; conditions: both Wt and Tg mice vs respective controls and vehicle groups
# Method: as §2
# [15] = tested on: IL-8; experiment: Multiplex bead array cytokine level in tumor tissue; assay type: in vivo, mice; conditions: RvE1 pre-treatment, mean ± SEM
# Method: as §1
# [16] = tested on: TNF-α; experiment: as above; assay type: in vivo, mice; conditions: RvE1 pre-treatment, mean ± SEM
# Method: as §1
# [17] = tested on: G-CSF; experiment: as above; assay type: in vivo, mice; conditions: RvE1 pre-treatment, mean ± SEM
# Method: as §1
# [18] = tested on: Ang1; experiment: Quantitative mRNA expression in tumor tissue (qPCR); assay type: in vivo, mice; conditions: p<0.001
# Method: as §3
# [19] = tested on: NF-κB; experiment: as above; assay type: in vivo, mice; conditions: p<0.001
# Method: as §3
# [20] = tested on: COX-2; experiment: as above; assay type: in vivo, mice; conditions: p<0.001
# Method: as §3
# [21] = tested on: CD34; experiment: Immunohistochemistry of tumor tissue, vascularization marker CD34; assay type: in vivo, mice
# Method: as §2
# [22] = tested on: NF-κB; experiment: NF-κB expression, RvE1 and cisplatin xenograft model; assay type: in vivo, mice
# [23] = tested on: lung cancer; experiment: LXA4 and xenograft model of lung cancer; assay type: in vivo
# [24] = tested on: COX-2; experiment: COX-2 expression, LXA4 xenograft model of lung cancer; assay type: in vivo; conditions: LXA4-treatment group
# [25] = Tg mice vs control and vehicle animals
# [26] = Wt mice vs control and vehicle animals
# [27] = RvE1 added to cisplatin, WT and TG animals
# [28] = cisplatin, WT and TG mice, p<0.001
smiles,measurement,setting,value
"CC[C@@H](O)/C=C/C=C\C[C@@H](O)/C=C/C=C/C=C\[C@@H](O)CCCC(=O)O [RvE1, Resolvin E1]",Microscopic alterations of tumor tissue,[1]; RvE1-treated Wt and Tg animals,extensive necrosis
same,"Necrosis, RvE1 treated Tg mice compared to Wt mice",[1]; Tg vs Wt,more prominent
same,IL-12 level in tumor tissue,[2],46.73 ± 4.7 pg/mL
same,IL-6 level in tumor tissue,[3],52.06 pg/mL
same,Tumor volume compared to cisplatin alone,"[4]; RvE1 added to cisplatin, both WT and TG animals, p<0.001",significantly and further reduced
same,Tumor volume compared to the non-treated and WT groups,[4]; TG animals treated with cisplatin and additional RvE1,markedly reduced tumor volume
same,"Signs of toxicity (behavioral changes; eating, drinking habits and movement)",[5],None of the animals exhibited any signs of toxicity
same,"Reduction in the expression of Ki67, RvE1 treated Tg mice compared to Wt mice treated with RvE1",[6]; Tg vs Wt,significantly (p<0.01) higher
same,Ki67-positive cells,[6]; both Wt and Tg groups vs vehicle and control groups,significant (p<0.001) reduction
same,Ang2 expression,[7],significantly decreased
same,VEGF expression reduction,[8]; [25],7 fold
same,VEGF expression reduction,[8]; [26],5 fold
same,"Decrease of VEGF expression, Tg mice compared to Wt mice treated with RvE1",[8],more significant
same,Suppression (reduction) of COX-2 expression compared to cisplatin alone,[9]; [27],increased the suppression
same,Histological findings in lungs,[10]; RvE1 vs control groups,"decreased tumor density, vascularization, and inflammatory infiltration with increased necrosis"
same,Number of nodules in the lung over 2 weeks,[10]; TG+RvE1 (TG control 8-10),3-5 nodules
same,Survival over 2 weeks,[10]; TG+RvE1 (TG control 25%),80%
same,Number of nodules in the lung over 2 weeks,[10]; WT+RvE1 (WT control 8-10),4-6 nodules
same,Survival over 2 weeks,[10]; WT+RvE1 (WT control 25%),40%
same,IL-1α level in tumor tissue,[11],177.94 ± 15.7 pg/mL
same,Reduction of the expression of COX2,[12]; both groups (WT and TG),6 fold
same,Reduction of expression (printed in the COX2 sentence),[12]; only in the TG animals,6-7 fold
same,"Necrosis seen on the surface of tumors, from day",[13]; RvE1 treated groups,19 days
same,No tumor,[13]; Tg mice,3
same,Tumor developed (number of mice),[13]; Tg mice,3
same,Necrosis,[13]; Tg mice,Started
same,No tumor,[13]; Wt mice,Weak
same,Tumor developed (number of mice),[13]; Wt mice,4
same,Necrosis,[13]; Wt mice,Started
same,Tumor size,"[13]; both Wt and Tg animals vs vehicle and control groups, p<0.001",reduced significantly
same,Body weight,"[13]; mouse, in vivo",no significant difference
same,"Signs of toxicity (behavioral changes; eating, drinking habits and movement)","[13]; mouse, in vivo",None of the animals exhibited any signs of toxicity
same,Tumor appearance,[13]; vs tumors of animals not treated with RvE1 (solid and rigid),very soft and pulpous
same,CD31 positive cells,[14],significantly (p<0.001) reduced
same,IL-8 level in tumor tissue,[15]; Tg mice,692.61 pg/mL
same,IL-8 level in tumor tissue,[15]; Wt mice,2629.41 ± 263.3 pg/mL
same,TNF-α level in tumor tissue,[16]; Tg mice,10.06 ± 2.1 ^¥¥ pg/ml
same,TNF-α level in tumor tissue,[16]; Wt mice,13.23 pg/mL
same,G-CSF level in tumor tissue,[17]; Tg mice,1156.31 pg/mL
same,G-CSF level in tumor tissue,[17]; Wt mice,1624.28 ± 170.8 pg/mL
same,Ang1 expression,[18]; both Wt and Tg mice vs controls and vehicle groups,significantly decreased
same,"Decrease in Ang1 expression, Tg mice compared to Wt animals",[18],more significant
same,NF-κB expression reduction,[19]; [25],7.6 fold
same,NF-κB expression reduction,[19]; [26],4 fold
same,COX-2 mRNA decrease,[20]; Tg mice vs controls and vehicle groups,8 fold
same,COX-2 mRNA decrease,[20]; Wt mice vs controls and vehicle groups,6 fold
same,CD34 positive cells,[21]; both Wt and Tg mice vs respective controls and vehicle groups,significantly (p<0.001) reduced
same,"Reduction of CD34 expression in tumor tissues, Tg animals vs Wt animals",[21]; p<0.01,significantly more
same,Suppression (reduction) of NF-κB expression compared to cisplatin alone,[22]; [27],increased the suppression
"CCCCC[C@H](O)/C=C/C=C\C=C\C=C\[C@@H](O)[C@@H](O)CCCC(=O)O [LXA4, lipoxin A4]","Necrosis, center of the tumor tissue","[23]; LXA4-treated group vs WT-vehicle control, 4 weeks",highly necrotic
same,Inflammatory infiltration,[23]; LXA4 group vs vehicle,no sign of inflammatory infiltration
same,Tumor volume,[23]; LXA4 vs vehicle group over 4 weeks,reduced the tumor volume significantly
same,Body weight,"[23]; LXA4 vs vehicle, 4 weeks",No change
same,COX-2 expression,[24],significantly decreased
N.N.[Cl][Pt][Cl] [cisplatin],Tumor volume,[4]; cisplatin,reduced tumor volume
same,Decrease of tumor growth compared to control groups,"[4]; cisplatin, both WT and TG groups",more than 10 fold
same,Body weight,[4]; cisplatin-alone group,lost weight after the first 2 weeks
same,COX-2 expression,[9]; [28],reduced
same,NF-κB expression,[22]; [28],reduced
